Assay results published in patent publication US7247295B2, “Use of 1,2-decandiol for combating germs causing body odor” (DRAGOCO Gerberding & Co. AG, priority 2001, dated 2007).
Values after ≈ are worked out from the molar mass of the structure shown.

Key:
Format in all cases: cell-based
[1] = test system: Brevibacterium epidermidis ATCC 35514; assay: MIC determination, agar dilution method (DIN 58 940/58 944); conditions: ATCC35514, Mueller-Hinton agar, aerobic, 18 h at 36° C., pure substance
Protocol: (§1) To prepare various test concentrations 2.6 ml of a 3.3% stock solution (3.3 g 1,2-decanediol or comparison substance in 100 ml ethanol (96% in H2O; Merck, Cat. no. 1.00971)) was used at the starting material in each case. Further test concentrations (diluted sample) in the form of a geometric dilution series were prepared by progressive 2:1 dilution with ethanol (96%; Merck, Cat. no. 1.00971). Determination of the antimicrobial action of 1,2-decanediol (or of a comparison substance) was carried out with the aid of the agar dilution method based on DIN 58 940/ICS and DIN 58 944/ICS. Petri dishes 5.5 cm in diameter were filled with 8.7 ml freshly prepared Mueller-Hinton agar (Merck, Cat. no. 1.05437 or Wilkins-Chalgren agar boillon (sic), Oxoid, Cat. no. CM 643, supplemented with 10 g agar-agar/litre) kept liquid at 50° C., to which in each case 0.3 ml of the particular sample, that is to say 3.3% (V/V) based on the total volume of agar and sample, was added. By means of this further dilution of the undiluted stock solution and of the already diluted samples with the test agar (0.3 ml of the stock solution or of the corresponding diluted sample+8.7 ml agar) 30-fold lower end concentrations were prepared in each case (when using the stock solution an initial concentration of 1,100 ppm results). The concentrations given below are based on the pure substance and have been converted to ppm. 2 agar plates were cast per test concentration and nutrient medium. After solidification and drying (about 1 h at 37° C.), the test plates were inoculated in point form with, in each case, 1 μl of the test organism suspensions listed below. To check purity and identity, the aerobically growing bacteria Brevibacterium epidermidis, Corynebacterium xerosis; and Staphylococcus epidermidis were cultured on Columbia blood agar (BioMérieux, Cat. no. 43049). Further details on the test organisms can be taken from Table 2. [table] The preparation of the test organism suspensions of the test organisms for Brevibacterium epidermidis, Corynebacterium xerosis, and Staphylococcus epidermidis was carried out by incubation of Mueller-Hinton bouillon (Merck, Cat. no. 1.10293), which had been inoculated with a few individual colonies of the particular test organisms, at 36° C. After a distinct turbidity had been achieved, sterile nutrient bouillon was added to the suspensions in such an amount that the turbidity thereof corresponded to McFarland Standard 0.5 (approx. 10^8 CFU/ml). The inoculated plates were incubated under the conditions given in Table 3 and were then assessed. The MIC (minimum inhibitory concentration) was considered to be the lowest active compound concentration with which there is macroscopically no growth. Minimum, barely visible growth or a few small individual colonies were assessed as inhibition. [table] Suspensions of the microorganisms described above were incubated in accordance with the general test conditions described under 1. and the MIC values of 1,2-decanediol were determined (see Table 4). For reference purposes the MIC values for 1,2-octanediol were also determined.

[2] = test system: Corynebacterium xerosis ATCC 7711; assay: as above; conditions: ATCC7711, Mueller-Hinton agar, aerobic, 18 h at 36° C., pure substance
Protocol: as §1

[3] = test system: Staphylococcus epidermidis ATCC 12228; assay: as above; conditions: ATCC12228, Mueller-Hinton agar, aerobic, 18 h at 36° C., pure substance
Protocol: as §1

[4] = test system: Staphylococcus epidermidis, Corynebacterium xerosis, Brevibacterium epidermidis; assay: MIC determination, agar dilution method, summary over the three test organisms; conditions: summary of Table 4 over all three test organisms
Protocol: To prepare various test concentrations 2.6 ml of a 3.3% stock solution (3.3 g 1,2-decanediol or comparison substance in 100 ml ethanol (96% in H2O; Merck, Cat. no. 1.00971)) was used at the starting material in each case. Further test concentrations (diluted sample) in the form of a geometric dilution series were prepared by progressive 2:1 dilution with ethanol (96%; Merck, Cat. no. 1.00971). Determination of the antimicrobial action of 1,2-decanediol (or of a comparison substance) was carried out with the aid of the agar dilution method based on DIN 58 940/ICS and DIN 58 944/ICS. […] The inoculated plates were incubated under the conditions given in Table 3 and were then assessed. […] Minimum, barely visible growth or a few small individual colonies were assessed as inhibition. Suspensions of the microorganisms described above were incubated in accordance with the general test conditions described under 1. and the MIC values of 1,2-decanediol were determined (see Table 4). For reference purposes the MIC values for 1,2-octanediol were also determined.

[5] = test system: Corynebacterium xerosis (C. xerosis 7711); assay: Growth curve, suspension test; conditions: concentration 0.3% in AC medium; incubated 20, 60 and 180 min; compared with 1,2-octanediol and farnesol
Protocol: • AC medium: 37 g brain heart infusion, 5 g glucose, 1 ml Tween 80, made up to 1 l with H2O. Test Substances: • 1,2-Octanediol (0.3%) • 1,2-Decanediol (0.3%) • Farnesol (0.3%) Control: • AC medium without active compound Test Solutions: • Relevant test substance in AC medium Suspension Test (see FIG. 1) 60 ml AC medium were inoculated with 0.4 ml of a fresh overnight culture of the test organism Corynebacterium xerosis (C. xerosis 7711). The culture vessel was shaken at 30° C. and 250 rpm until a cell density of 10^5 to 10^6 cells/ml had been reached. The test substances were weighed out and in each case dissolved in 2.5 ml AC medium with brief heating to 60° C. The test solutions obtained in this way were then added to 2.5 ml bacterial suspension in each case and the mixtures were incubated for 20, 60 and 180 min maintaining the growth conditions. 100 μl of the incubated test solutions were then taken and the bacterial titre determined by plating-out on nutrient medium.

| MIC [1] [µg/mL] | MIC [2] [µg/mL] | MIC [3] [µg/mL] | MIC [4] [µg/mL] | MIC values (over the three test organisms) [4] | SMILES | effectiveness in growth curve (bacterial titre) [5] |
| --- | --- | --- | --- | --- | --- | --- |
| 3600 (≈ 24.6 mM) | 3600 (≈ 24.6 mM) | 1800 (≈ 12.3 mM) | 1800 to 3600 (≈ 12.3 to 24.6 mM) |  | CCCCCCC(O)CO (stereo not drawn) [1,2-Octanediol, 1,2-octanediol, reference compound] |  |
| 450 (≈ 2.58 mM) | 225 (≈ 1.29 mM) | 225 (≈ 1.29 mM) |  | distinctly lower | CCCCCCCCC(O)CO (stereo not drawn) [1,2-Decanediol, 1,2-decanediol] | by far the greatest effectiveness of the substances tested |
